Laboratory results from ChEMBL document CHEMBL1149826, “Chemical constituents and diversity of Ligularia lankongensis in Yunnan Province of China” (2008).
Active and inactive are the calls of the source. The rule behind the calls is not given here.

Test system: Bacillus subtilis
Assay: Antibacterial activity against Bacillus subtilis PCI219 assessed as inhibition zone diameter at […] after 24 hrs by paper disk diffusion assay
Type: functional

SMILES | Activity | zone of inhibition at 10 mg/kg (PCI219, 24 h, read-out: IZ) [mm]
C=C(C(CC1OC1(C)C)OC(=O)/C(C)=C\C)[C@H]1[C@H](OC(=O)/C(C)=C\C)[C@H]2O[C@@]2(C)[C@@H](O)[C@H]1OC(=O)/C(C)=C\C (some centres not stated) | Active | 
CC[C@H]1OC(=O)[C@H](C)[C@@H](O[C@H]2C[C@@](C)(OC)[C@@H](O)[C@H](C)O2)[C@H](C)[C@@H](O[C@@H]2O[C@H](C)C[C@H](N(C)C)[C@H]2O)[C@](C)(O)C[C@@H](C)C(=O)[C@H](C)[C@@H](O)[C@]1(C)O [ERYTHROMYCIN] |  | 31
